According to ChEMBL document CHEMBL1130650, “Nitroglycosylated meso-arylporphyrins as photoinhibitors of gram positive bacteria” (1998):
Converted amounts (≈) assume the structure as drawn. The source made the active and inactive calls. The calls are words filed in the database; no cut-off is given here. Where a SMILES comes first, the peptide text is derived from it. Bridges are numbered along the chain shown (N, C = ends). [ ]: non-standard residue; d: D form. The star is where a group is joined. NMePhe(4-NMe2) = CN[C@@H](Cc1ccc(N(C)C)cc1)C(=O)O; Pip(4-oxo) = O=C1CCN[C@H](C(=O)O)C1; Picolinoyl(3-OH) = O=C(c1ncccc1O)*; Phg = N[C@H](C(=O)O)c1ccccc1; dAbu = CC[C@@H](N)C(=O)O

How the values were obtained:
Staphylococcus aureus [1] = test: Compound was tested for photoinhibition of Staphylococcus aureus(CIP 53156); Sensitive; type: functional, organism-based
Staphylococcus aureus [2] = test: Compound was tested for antibacterial activity against Staphylococcus aureus CIP 53156; type: functional
Escherichia coli [3] = test: Compound was tested for photoinhibition of Escherichia coli (CIP 548T); Resistant; type: functional, organism-based
Escherichia coli [4] = test: Compound was tested for photoinhibition of Escherichia coli (CIP 548T); Sensitive; type: functional, organism-based
Staphylococcus aureus [5] = test: Compound was tested for photoinhibition of Staphylococcus aureus(CIP 53156); […]; type: functional, organism-based
Escherichia coli [6] = test: Compound was tested for photoinhibition of Escherichia coli (CIP 548T); Partially resistant; type: functional, organism-based
Staphylococcus aureus [7] = test: Compound was tested for photoinhibition of Staphylococcus aureus(CIP 53156); Partially resistant; type: functional, organism-based
Staphylococcus aureus [8] = test: Compound was tested for photoinhibition of Staphylococcus aureus(CIP 53156); type: functional, organism-based

CC1(C)S[C@@H]2[C@H](NC(=O)Cc3ccccc3)C(=O)N2[C@H]1C(=O)O
Antibiotic resistance (Staphylococcus aureus [1]): Sensitive

O=[N+]([O-])c1ccc(-c2c3nc(c(-c4ccc(OC[C@H]5O[C@H](O)[C@H](O)[C@@H](O)[C@@H]5O)cc4)c4nc(c(-c5ccc(OC[C@H]6O[C@H](O)[C@H](O)[C@@H](O)[C@@H]6O)cc5)c5ccc([nH]5)c(-c5ccc(OC[C@H]6O[C@H](O)[C@H](O)[C@@H](O)[C@@H]6O)cc5)c5ccc2[nH]5)C=C4)C=C3)cc1
CI50 (Staphylococcus aureus [2]): 10 µg/mL (≈ 8.37 µM)

CC[C@H]1NC(=O)[C@@H](NC(=O)c2ncccc2O)[C@@H](C)OC(=O)[C@H](c2ccccc2)NC(=O)[C@@H]2CC(=O)CCN2C(=O)[C@H](Cc2ccc(N(C)C)cc2)N(C)C(=O)[C@@H]2CCCN2C1=O ({Picolinoyl(3-OH)}-T[dAbu]P[NMePhe(4-NMe2)][Pip(4-oxo)][Phg]; ester 1-C)
Antibiotic resistance (Escherichia coli [3]): Resistant

NC[C@H]1O[C@H](O[C@H]2[C@H](O)[C@@H](O[C@H]3O[C@H](CO)[C@@H](O)[C@H](N)[C@H]3O)[C@H](N)C[C@@H]2N)[C@H](O)[C@@H](O)[C@@H]1O
Antibiotic resistance (Staphylococcus aureus [1]): Sensitive

CN[C@@H]1[C@H](O[C@H]2[C@H](O[C@H]3[C@H](O)[C@@H](O)[C@H](N=C(N)N)[C@@H](O)[C@@H]3N=C(N)N)O[C@@H](C)[C@]2(O)C=O)O[C@@H](CO)[C@H](O)[C@H]1O
Antibiotic resistance (Escherichia coli [4]): Sensitive
Antibiotic resistance (Staphylococcus aureus [1]): Sensitive

CCn1cc(C(=O)O)c(=O)c2ccc(C)nc21
Antibiotic resistance (Staphylococcus aureus [5]): Resistant

CC[C@H]1OC(=O)[C@H](C)[C@@H](O[C@H]2C[C@@](C)(OC)[C@@H](O)[C@H](C)O2)[C@H](C)[C@@H](O[C@@H]2O[C@H](C)C[C@H](N(C)C)[C@H]2O)[C@](C)(O)C[C@@H](C)C(=O)[C@H](C)[C@@H](O)[C@]1(C)O
Antibiotic resistance (Staphylococcus aureus [1]): Partially resistant
Antibiotic resistance (Escherichia coli [6]): Partially resistant

O=C(N[C@H](CO)[C@H](O)c1ccc([N+](=O)[O-])cc1)C(Cl)Cl
Antibiotic resistance (Escherichia coli [4]): Partially resistant
Antibiotic resistance (Staphylococcus aureus [7]): Partially resistant

CO[C@H]1/C=C/O[C@@]2(C)Oc3c(C)c(O)c4c(O)c(c(/C=N/N5CCN(C)CC5)c(O)c4c3C2=O)NC(=O)/C(C)=C\C=C\[C@H](C)[C@H](O)[C@@H](C)[C@@H](O)[C@@H](C)[C@H](OC(C)=O)[C@@H]1C
Antibiotic resistance (Escherichia coli [4]): Sensitive
Antibiotic resistance (Staphylococcus aureus [1]): Sensitive

CN(C)[C@@H]1C(O)=C(C(N)=O)C(=O)[C@@]2(O)C(O)=C3C(=O)c4c(O)cccc4[C@@](C)(O)[C@H]3C[C@@H]12
Antibiotic resistance (Escherichia coli [4]): Active
Antibiotic resistance (Staphylococcus aureus [1]): Active

Nc1ccc(S(N)(=O)=O)cc1
Antibiotic resistance (Escherichia coli [4]): Sensitive
Antibiotic resistance (Staphylococcus aureus [1]): Sensitive

CC(=O)OCC1=C(C(=O)O)N2C(=O)[C@@H](NC(=O)Cc3cccs3)[C@H]2SC1
Antibiotic resistance (Staphylococcus aureus [8]): Partially resistant
Antibiotic resistance (Escherichia coli [6]): Partially resistant

CN[C@H](CC(C)C)C(=O)N[C@H]1C(=O)N[C@@H](CC(N)=O)C(=O)N[C@H]2C(=O)N[C@H]3C(=O)N[C@H](C(=O)N[C@H](C(=O)O)c4cc(O)cc(O)c4-c4cc3ccc4O)[C@H](O)c3ccc(c(Cl)c3)Oc3cc2cc(c3O[C@@H]2O[C@H](CO)[C@@H](O)[C@H](O)[C@H]2O[C@H]2C[C@](C)(N)[C@H](O)[C@H](C)O2)Oc2ccc(cc2Cl)[C@H]1O
Antibiotic resistance (Staphylococcus aureus [1]): Sensitive

CC1(C)S[C@@H]2[C@H](NC(=O)[C@H](N)c3ccc(O)cc3)C(=O)N2[C@H]1C(=O)O
Antibiotic resistance (Escherichia coli [4]): Sensitive
